Experimental data: patent publication US12410153B2, “Compounds, compositions and methods” (Avalo Therapeutics, Inc., priority 2014, dated 2025)
Where two headings read alike, the source gives them in different places.

How the values were obtained:
[1] = biological target: T1, NMDA-GluN2B receptors, rhesus monkey frontal cortex homogenate (Macaca mulatta, UniProt F6T8S6); assay: Radioligand binding, rhesus frontal cortex homogenate; conditions: geometric mean
T1 construct: frontal cortex homogenate (dog and rhesus monkey); from tissue; host or cells: rhesus monkey frontal cortex homogenate
Experimental: (§1) Radioligand binding assays were performed at room temperature (or 37° C.) in 96-well microtiter plates with a final assay volume of […] in 20 mM HEPES buffer (pH 7.4) containing 150 mM NaCl. […] Nonspecific binding was assessed using N-(3-chlorobenzyl)-4-iodobenzimidamide (final concentration, 10 μM), and total binding was measured by addition of DMSO (final concentration, 2%). L(tk−) cell membranes expressing human GluN1a/GluN2B receptors (final concentration, 40 pM) and [^3H]-[(E)-N1-(2-methoxybenzyl)-cinnamamidine] (final concentration, 1 nM) were added to all wells of the microtiter plate. After 3 h (24 h or 48 h) of incubation at room temperature (or 37° C.), samples were filtered through Packard GF/B filters (presoaked in 0.05% polyethylenimine [PEI; Sigma P-3143]) and washed 10 times with 1 mL of cold 20 mM HEPES buffer per wash. After vacuum drying of the filter plates, 50 μL of Packard Microscint-20 was added and the bound radioactivity determined in a Packard TopCount.
(§2) Analogous binding experiments, to those described above for the cloned human receptor expressed in L(tk−) cells, were also performed using whole brain homogenate (rat), frontal cortex homogenate (dog and rhesus monkey), and temporal cortex homogenate (human).

[2] = Single-dose pharmacokinetics in rats (oral and IV); type: in vivo; conditions: male, Sprague-Dawley, rat, plasma
Experimental: (§3) Male Sprague-Dawley rats (N=8; N=4 oral and N=4 intravenous [IV]) weighing approximately 250-280 g and male rhesus monkeys (N=4, crossover) weighing 6.0-8.8 kg were used for the PK studies. In rats, the IV dose of crystalline Form II of Compound (I) at 2 mg/kg (0.4 mL/kg) was administered as a bolus and the oral dose was administered by gavage at 15 mg/kg (5 mL/kg). In monkeys, the IV dose of Form II at 2 mg/kg (0.1 mL/kg) was administered as a slow bolus and the oral dose was administered via nasogastric tube at 15 mg/kg (5 mL/kg). Blood samples were serially collected pre-dose, and at 0.083 (IV only), 0.25, 0.50, 1, 2, 4, 6, 8, 10, 24, 48, 72, and 96 h post-dose. The concentrations of Form II in rat and monkey plasma were determined by LC/MS/MS analysis in the positive ion mode using a heated nebulizer interface. The lower limit of quantitation was 2.5 ng/mL (approximately 0.00697 μM).

[3] = biological target: GluN1a/GluN2B human receptors (Homo sapiens, UniProt Q05586+Q13224); assay: Radioligand binding, L(tk−) cell membranes expressing human GluN1a/GluN2B; design: expressed in transfected cells; host or cells: L(tk−) cells (mouse fibroblasts), dexamethasone-inducible expression; conditions: geometric mean
[4] = Single-dose pharmacokinetics in monkeys (oral and IV); type: in vivo; conditions: male, rhesus monkey, plasma
Experimental: as §3

[5] = biological target: T2, NMDA-GluN2B receptors, human temporal cortex homogenate (Homo sapiens, UniProt Q05586+Q13224); assay: Radioligand binding, human temporal cortex homogenate; conditions: geometric mean
T2 construct: temporal cortex homogenate (human); from tissue; host or cells: human temporal cortex homogenate
Experimental: as §1, §2

[6] = biological target: hERG current (Homo sapiens, UniProt Q12809); assay: In vitro hERG assay; type: cell-based
Experimental: The potential effects of Form II of Compound (I) on the functions of the nervous system, cardiovascular system, and respiratory system were evaluated in a battery of safety pharmacology studies that included an in vitro human ether-a-go-go-related gene (hERG) assay and in vivo studies in rats, dogs, and monkeys. CNS effects were tested in rats at single doses at 15, 75, and 225 mg/kg.
Effects of Form II on the cardiovascular system were tested in several studies. Potential QTc effects were tested in vitro and in vivo.

[7] = Acute depression model, forced swim test; type: in vivo, rat; conditions: male, Sprague-Dawley, rat, plasma, read-out: plasma level at time of sampling
Experimental: (§4) Young, adult, male Sprague-Dawley rats were randomly assigned across the treatment groups and were administered vehicle (0.5% MC/0.02% SLS), the reference compound desipramine (20 mg/kg; a tricyclic antidepressant; Sigma, Lot #078K1326) dissolved in sterile water, or crystalline Form II of Compound (I) (0.1, 0.3, 1, 3, 10, and 30 mg/kg) suspended in 0.5% MC/0.02% SLS, twice on Day 1 (after habituation; ˜24 h prior to test, and prior to dark cycle) and once on Day 2 (30 min pre-test for desipramine and 45 min pre-test for Form II and vehicle).
(§5) Each Forced Swim chamber was constructed of clear acrylic (height, 40 cm; diameter, 20.3 cm). Rats were subjected to a pre-dose swim test of one 15-min session in cylinders containing water at 23° C.±1° C., followed approximately 24 h later by the experimental 5-min session. The water level was 16 cm deep during habituation and 30 cm deep during the test. Immobility, climbing, and swimming behaviors were recorded every 5 s for a total of 60 counts per subject. When an animal was unable to maintain a posture with its nose above water, it was immediately removed from the water and eliminated from the study. Blood was collected at the completion of swim test procedures and plasma was analyzed for Form II concentrations.

[8] = system: Sprague-Dawley rats; assay: Acute depression model, forced swim test; type: in vivo, rat; conditions: for RO: corresponding to plasma level; for ED50: Rattus norvegicus
Experimental: as §4, §5

[9] = IV 2 mg/kg, mean (S.D.), read-out: CLp
[10] = IV 2 mg/kg, mean (S.D.), read-out: Vdss
[11] = rhesus, PO 15 mg/kg, mean (S.D.)

Chain of GluN1a/GluN2B human receptors (Q13224 27-1484, other chains not shown): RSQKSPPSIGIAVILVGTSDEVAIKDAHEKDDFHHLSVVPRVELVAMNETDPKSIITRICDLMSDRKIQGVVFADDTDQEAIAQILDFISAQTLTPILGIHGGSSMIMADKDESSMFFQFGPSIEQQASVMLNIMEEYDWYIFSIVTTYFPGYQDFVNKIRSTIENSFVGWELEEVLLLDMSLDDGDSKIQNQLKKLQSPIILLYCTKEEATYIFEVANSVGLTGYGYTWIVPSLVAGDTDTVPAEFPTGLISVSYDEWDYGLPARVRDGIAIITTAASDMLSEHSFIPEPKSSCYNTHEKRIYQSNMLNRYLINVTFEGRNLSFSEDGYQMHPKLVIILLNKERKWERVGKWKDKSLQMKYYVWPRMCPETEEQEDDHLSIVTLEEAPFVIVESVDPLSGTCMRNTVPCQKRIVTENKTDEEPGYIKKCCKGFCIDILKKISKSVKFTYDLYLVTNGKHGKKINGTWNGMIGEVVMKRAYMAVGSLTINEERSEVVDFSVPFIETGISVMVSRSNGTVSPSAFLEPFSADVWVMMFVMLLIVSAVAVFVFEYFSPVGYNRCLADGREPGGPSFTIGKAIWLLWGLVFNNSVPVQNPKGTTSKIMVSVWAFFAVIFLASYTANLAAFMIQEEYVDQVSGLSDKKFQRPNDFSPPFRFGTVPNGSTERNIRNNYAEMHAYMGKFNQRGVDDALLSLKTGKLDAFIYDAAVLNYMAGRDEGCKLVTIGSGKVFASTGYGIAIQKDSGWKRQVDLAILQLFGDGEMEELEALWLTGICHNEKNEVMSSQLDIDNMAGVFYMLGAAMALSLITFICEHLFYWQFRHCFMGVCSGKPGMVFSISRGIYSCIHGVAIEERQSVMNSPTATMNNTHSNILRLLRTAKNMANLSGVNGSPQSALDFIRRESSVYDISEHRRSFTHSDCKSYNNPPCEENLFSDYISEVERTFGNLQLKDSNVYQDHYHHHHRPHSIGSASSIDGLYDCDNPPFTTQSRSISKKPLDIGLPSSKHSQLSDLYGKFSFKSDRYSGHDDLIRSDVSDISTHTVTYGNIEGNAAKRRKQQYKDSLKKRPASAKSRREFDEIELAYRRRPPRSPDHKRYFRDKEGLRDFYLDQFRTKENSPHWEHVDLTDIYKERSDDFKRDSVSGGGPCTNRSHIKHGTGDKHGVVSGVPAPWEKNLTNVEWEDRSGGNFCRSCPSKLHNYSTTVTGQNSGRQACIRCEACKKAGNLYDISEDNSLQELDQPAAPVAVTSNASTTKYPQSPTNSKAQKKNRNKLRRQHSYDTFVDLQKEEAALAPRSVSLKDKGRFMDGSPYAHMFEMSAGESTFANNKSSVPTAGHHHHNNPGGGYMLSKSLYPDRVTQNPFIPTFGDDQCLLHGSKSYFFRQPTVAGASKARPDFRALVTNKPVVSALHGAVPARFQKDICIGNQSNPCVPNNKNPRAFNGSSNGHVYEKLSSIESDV
T2 sequence (Q13224 27-1484, other chains not shown): as above
T1 sequence (F6T8S6 29-1484): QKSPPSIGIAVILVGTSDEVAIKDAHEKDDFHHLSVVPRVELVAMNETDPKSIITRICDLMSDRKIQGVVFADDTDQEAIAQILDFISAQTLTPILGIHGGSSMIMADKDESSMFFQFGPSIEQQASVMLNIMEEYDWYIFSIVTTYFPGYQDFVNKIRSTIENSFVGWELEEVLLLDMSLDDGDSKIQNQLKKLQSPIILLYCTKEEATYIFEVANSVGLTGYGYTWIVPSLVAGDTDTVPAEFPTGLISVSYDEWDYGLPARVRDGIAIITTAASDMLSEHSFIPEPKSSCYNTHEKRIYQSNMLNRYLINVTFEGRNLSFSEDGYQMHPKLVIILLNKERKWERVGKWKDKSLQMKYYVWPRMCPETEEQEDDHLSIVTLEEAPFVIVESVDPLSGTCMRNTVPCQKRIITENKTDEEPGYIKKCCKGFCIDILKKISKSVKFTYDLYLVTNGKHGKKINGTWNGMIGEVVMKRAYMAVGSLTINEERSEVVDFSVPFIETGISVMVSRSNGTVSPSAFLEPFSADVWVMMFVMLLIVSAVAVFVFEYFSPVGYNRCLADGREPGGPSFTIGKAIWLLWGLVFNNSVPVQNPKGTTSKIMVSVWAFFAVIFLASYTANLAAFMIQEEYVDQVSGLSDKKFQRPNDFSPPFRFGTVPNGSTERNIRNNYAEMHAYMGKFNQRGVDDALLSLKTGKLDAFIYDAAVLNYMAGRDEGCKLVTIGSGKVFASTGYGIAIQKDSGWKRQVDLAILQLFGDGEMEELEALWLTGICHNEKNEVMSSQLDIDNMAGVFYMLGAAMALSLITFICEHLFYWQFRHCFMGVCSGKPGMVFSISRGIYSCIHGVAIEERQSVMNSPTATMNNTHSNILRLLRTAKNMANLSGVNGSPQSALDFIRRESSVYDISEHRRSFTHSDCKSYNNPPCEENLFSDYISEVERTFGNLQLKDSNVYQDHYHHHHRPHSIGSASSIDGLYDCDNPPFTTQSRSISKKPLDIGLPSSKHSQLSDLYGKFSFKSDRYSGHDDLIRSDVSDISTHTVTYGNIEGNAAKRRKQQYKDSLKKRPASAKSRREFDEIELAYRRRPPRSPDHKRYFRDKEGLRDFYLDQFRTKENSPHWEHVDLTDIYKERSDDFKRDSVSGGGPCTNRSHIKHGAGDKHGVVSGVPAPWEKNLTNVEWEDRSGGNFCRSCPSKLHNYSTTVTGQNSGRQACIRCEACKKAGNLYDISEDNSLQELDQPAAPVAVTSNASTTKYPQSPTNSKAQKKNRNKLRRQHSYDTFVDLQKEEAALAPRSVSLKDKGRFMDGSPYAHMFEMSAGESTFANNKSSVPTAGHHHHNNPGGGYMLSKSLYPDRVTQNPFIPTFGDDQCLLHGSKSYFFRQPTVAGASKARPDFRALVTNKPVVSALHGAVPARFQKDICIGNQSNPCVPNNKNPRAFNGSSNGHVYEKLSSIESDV

With Cc1ccc(COC(=O)N2CC[C@H](CNc3ncccn3)[C@H](F)C2)cc1 [Form II, 4-methylbenzyl (3S, 4R)-3-fluoro-4-[(pyrimidin-2-ylamino)methyl] piperidine-1-carboxylate] the Ki ([1]; 37° C.) was 14 nM, the Ki ([1]; room temp.) was 3.1 nM and the bioavailability ([2]; 15 mg/kg, dose-normalized AUC0-∞ after IV and PO, non-crossover) was 60%. For the same compound, the AUC(0-inf) ([2]; IV 2 mg/kg, mean (S.D.)) was 3.31 µM·h, the half-life ([2]; IV 2 mg/kg, mean (S.D.)) was 1.7 h and the clearance [2, 9] was 28.4 mL/min/kg. The Vd [2, 10] was 3.1 L/kg, the AUC(0-inf) ([2]; PO 15 mg/kg, mean (S.D.)) was 14.9 µM·h and the Cmax ([2]; PO 15 mg/kg, mean (S.D.)) was 5900 nM. For the same compound, the Ki ([3]; 4° C.) was 1.8 nM, the Ki ([3]; 37° C.) was 31 nM and the Ki ([3]; room temp.) was 4.9 nM. The bioavailability ([4]; 15 mg/kg, dose-normalized AUC0-∞ after IV and PO, crossover) was 50%, the Tmax ([4]; po, 15 mg/kg, PO 15 mg/kg, mean (S.D.)) was ~2 h and the half-life ([4]; IV 2 mg/kg, mean (S.D.)) was 4.2 h. For the same compound, the clearance [4, 9] was 15.1 mL/min/kg, the Vd [4, 10] was 2.9 L/kg and the AUC(0-inf) ([4]; rhesus, IV 2 mg/kg, mean (S.D.)) was 6.67 µM·h. The AUC(0-inf) [4, 11] was 25.1 µM·h, the Cmax [4, 11] was 3600 nM and the Ki ([5]; 37° C.) was 8.1 nM. It also gave a Ki ([5]; room temp.) of 3.1 nM, an IC50 [6] of ~13000 nM and a concentration at 50 min ([7]; 0.1 mg/kg) of ~15 nM. For the same compound, the concentration at 50 min ([7]; 0.3 mg/kg) was ~120 nM, the concentration at 50 min ([7]; 1 mg/kg) was ~390 nM and the concentration at 50 min ([7]; 3 mg/kg) was ~1420 nM. For the same compound, the concentration at 50 min ([7]; 10 mg/kg) was ~4700 nM, the concentration at 50 min ([7]; 30 mg/kg) was ~14100 nM and the RO ([8]; 0.1 mg/kg) was “approximately 5%”. For the same compound, the RO ([8]; 0.3 mg/kg) was ~29%, the RO ([8]; 1 mg/kg) was ~56% and the RO ([8]; 3 mg/kg) was ~83%. The RO ([8]; 10 mg/kg) was ~94%, the RO ([8]; 30 mg/kg) was ~98% and the climbing behavior ([8]; 1, 3, 10, and 30 mg/kg vs vehicle) was “did not affect climbing behavior except at the dose of 3 mg/kg”. For the same compound, the immobility frequency ([8]; 1, 3, 10, and 30 mg/kg vs vehicle, P<0.001) was “significantly decreased”, the swimming behavior ([8]; 1, 3, 10, and 30 mg/kg vs vehicle, P<0.01 (P<0.05 for 10 mg/kg)) was “significantly increased” and the ED50 ([8]; read-out: ED50 for decrease in immobility) was ~0.7 mg/kg. The ED50 ([8]; read-out: ED50 for increase in frequency of swimming) was ~0.3 mg/kg, the “RO corresponding to ED50 for immobility” value ([8]; rat, in vivo) was ~50% and the “RO corresponding to ED50 for swimming” value ([8]; rat, in vivo) was ~30%.
